Data reported in PMC4791575 (ACS Infectious Diseases, 2016).
Like-named read-outs stand apart in the source and are kept apart here.

Columns and labels:
T. brucei cells = assay: microbe, parasite or virus in culture; format: cell-based, Trypanosoma brucei; settings: for EC50: Trypanosoma brucei, read-out: T. brucei pEC50 (within 46%) (converted); for T. brucei pEC50 (within 46%): purchased inhibitors, Table 3
HepG2 cells = assay: HepG2 host cell toxicity assay; format: cell-based; settings: HepG2, purchased inhibitors, Table 3
L. major promastigotes = assay: microbe, parasite or virus in culture; format: cell-based, Leishmania major; settings: for EC50: Leishmania major, read-out: Leishmania Promast pEC50 (converted); for Leishmania Promast pEC50: L. major promastigotes
[1] = tested on: L. major intracellular amastigotes; assay: microbe, parasite or virus in culture; format: cell-based, Leishmania major; settings: for EC50: Leishmania major, read-out: Leishmania Amast pEC50 (converted); for Leishmania Amast pEC50: L. major intracellular amastigotes
[2] = tested on: T. cruzi intracellular amastigotes (Tulahuen strain); assay: microbe, parasite or virus in culture; format: cell-based, Trypanosoma cruzi; settings: for EC50: Trypanosoma cruzi, TULAHUEN, read-out: T. cruzi pEC50 (μM) (within 21%) (converted); for T. cruzi pEC50 (within 21%): intracellular amastigotes, Tulahuen strain
P. falciparum D6 = assay: microbe, parasite or virus in culture; format: cell-based, Plasmodium falciparum; settings: for EC50: Plasmodium falciparum, D6, read-out: P. falciparum D6 pEC50 (converted); for P. falciparum D6 pEC50: D6 strain
P. falciparum W2 = assay: microbe, parasite or virus in culture; format: cell-based, Plasmodium falciparum; settings: for EC50: Plasmodium falciparum, W2, read-out: P. falciparum W2 pEC50 (converted)
P. falciparum C235 = assay: microbe, parasite or virus in culture; format: cell-based, Plasmodium falciparum; settings: for EC50: Plasmodium falciparum, read-out: P. falciparum C235 pEC50 (converted)
3T3 = 3T3 host cell toxicity; format: cell-based

SMILES | T. brucei proliferation activity (in words; active = pEC50 ≥ 6) (T. brucei cells) | EC50 (T. brucei cells) [nM] | host cell tox HepG2 pTC50 (HepG2 cells) | EC50 (L. major promastigotes) [nM] | EC50 [1] [nM] | EC50 [2] [µM] | EC50 (P. falciparum D6) [nM] | EC50 (P. falciparum W2) [nM] | EC50 (P. falciparum C235) [nM] | host cell tox 3T3 pTC50 (3T3) | T. brucei proliferation activity (in words; active = pEC50 ≥ 6) (T. brucei cells; listed as NVP-TAE684) | T. brucei pEC50 (within 46%) (T. brucei cells) | Leishmania Promast pEC50 (L. major promastigotes) | Leishmania Amast pEC50 [1] | T. cruzi pEC50 (within 21%) [2] | P. falciparum D6 pEC50 (P. falciparum D6) | P. falciparum W2 pEC50 (P. falciparum W2) | P. falciparum C235 pEC50 (P. falciparum C235)
C[C@@H](Oc1cc(-c2cnn(C3CCNCC3)c2)cnc1N)c1c(Cl)ccc(F)c1Cl [NEU-838, crizotinib] | potent T. brucei proliferation inhibitors | 398 | 5.4 | 631 | 1580 | 7.94 | 794 | 39.8 | 100 | 4.8 |  |  |  |  |  |  |  | 
COc1cc(N2CCC(N3CCN(C)CC3)CC2)ccc1Nc1ncc(Cl)c(Nc2ccccc2S(=O)(=O)C(C)C)n1 [NEU-844, TAE684] |  | 100 | 5.3 | 316 | 1260 | 5.01 | 501 | 398 | 501 | 4.6 | potent T. brucei proliferation inhibitors |  |  |  |  |  |  | 
Nc1ncnc2c1c(-c1cccc(OCc3ccccc3)c1)cn2[C@H]1C[C@@H](CN2CCC2)C1 [NEU-967, NVP-AEW5414] |  | 2000 | 5.5 | 100 | 3980 | 3.98 | 1260 | 1000 | 1260 | 4.8 |  |  |  |  |  |  |  | 
CCCCOc1c(C(=O)c2c(F)cc(C)cc2F)c[nH]c2nncc1-2 [NEU-968, BMS-2652465] |  | 501 | <4.4 | 251 | > 15800 | > 50.1 | 15800 | 10000 | 12600 | <4 |  |  |  |  |  |  |  | 
CNC(=O)c1nn(C)c2c1C(C)(C)Cc1cnc(Nc3ccc(N4CCN(C)CC4)cc3)nc1-2 [NEU-969, PHA-8481256] |  | 25.1 | 5.0 | 316 | 5010 | 0.0398 | 6310 | 7940 | 6310 | <4 |  |  |  |  |  |  |  | 
CCc1cc(Nc2nccc(-c3c(-c4ccc(OC)c(C(=O)Nc5c(F)cccc5F)c4)nc4ccccn34)n2)c(OC)cc1N1CCC(N2CCN(S(C)(=O)=O)CC2)CC1 [NEU-970, GSK1904529A7] |  |  | <4.4 |  |  |  |  |  |  | <4 |  | 5.9 | <4.9 | 5.5 | < 4.3 | 6.8 | 7.0 | 6.9
Nc1nc(Nc2ccc(S(N)(=O)=O)cc2)nn1C(=O)c1c(F)cccc1F [NEU-971, JNJ-77066218] |  | 316 | 5.2 | > 25100 | > 15800 | > 50.1 | 2000 | 1000 | 1260 | <4 |  |  |  |  |  |  |  | 
COc1cc(OC)c(/C=C/S(=O)(=O)Cc2ccc(OC)c(NCC(=O)O)c2)c(OC)c1 [NEU-973, ON-019109] |  | > 3160 | <4.4 | > 25100 | > 15800 | > 50.1 | > 20000 | > 20000 | > 20000 | <4 |  |  |  |  |  |  |  | 
CCc1cc2c(cc1N1CCC(N3CCOCC3)CC1)C(C)(C)c1[nH]c3cc(C#N)ccc3c1C2=O [NEU-974, CH542480210] |  | > 3160 | <4.4 | 126 | > 15800 | > 50.1 | 3980 | > 20000 | > 20000 | <4 |  |  |  |  |  |  |  | 
CCc1cnn2c(NCc3ccc[n+]([O-])c3)cc(N3CCCC[C@H]3CCO)nc12 [NEU-975, dinaciclib] |  |  | <4.4 |  |  |  |  |  |  | <4 |  |  |  |  |  |  |  | 
C[C@]1(O)C[C@@H](c2nc(-c3ccc4ccc(-c5ccccc5)nc4c3)c3c(N)nccn32)C1 [NEU-976, linsitinib] |  | > 3160 | 4.5 | 7940 | > 15800 | 10 | 501 |  | 501 | <4 |  |  |  |  |  |  |  | 
CC[C@H](CO)Nc1nc(NCc2ccccc2)c2ncn(C(C)C)c2n1 [NEU-977, roscovitine] |  |  | 4.5 |  |  |  |  |  |  | <4 |  |  |  |  |  |  |  | 
Nc1nc(NCCNc2ncc(-c3ncc[nH]3)c(-c3ccc(Cl)cc3Cl)n2)ccc1[N+](=O)[O-] [NEU-978, CHIR-9801414] |  |  | 4.8 |  |  |  |  |  |  | <4 |  | <5.5 | 5.2 | <4.8 | < 4.3 | <4.7 | <4.7 | <4.7
CC[C@@H]1C(=O)N(C)c2cnc(Nc3ccc(C(=O)N[C@H]4CC[C@H](N5CCN(CC6CC6)CC5)CC4)cc3OC)nc2N1C(C)C [NEU-979, volasertib] |  | > 3160 | 5.5 | 1580 | 7940 | 12.6 | 158 | 158 | 158 | 4.6 |  |  |  |  |  |  |  | 
CC[C@@H]1C(=O)N(C)c2cnc(Nc3ccc(C(=O)NC4CCN(C)CC4)cc3OC)nc2N1C1CCCC1 [NEU-980, BI 253616] |  | 631 | 5.6 | 3980 | 7940 | 20 | 20 | 10 | 12.6 | 4.5 |  |  |  |  |  |  |  | 
O=C(NC1CCNCC1)c1n[nH]cc1NC(=O)c1c(Cl)cccc1Cl [NEU-982, AT751918] |  | 316 | <4.4 | > 25100 | > 15800 | 1.26 | 1260 | 794 | 316 | <4 |  |  |  |  |  |  |  | 
CC(C)(C)c1cnc(CSc2cnc(NC(=O)C3CCNCC3)s2)o1 [NEU-984, SNS-03219, 20] |  | 126 | <4.4 | > 25100 | > 15800 | > 50.1 | 5010 | 3160 | 2000 | <4 |  |  |  |  |  |  |  | 
Cc1ncc(-c2ccnc(Nc3ccc(S(C)(=O)=O)cc3)n2)n1C(C)C [NEU-985, AZD543821] |  | 31.6 | 4.9 | 398 | 2510 | 1.58 | 1260 | 1000 | 1260 | <4 |  |  |  |  |  |  |  | 
O=C1NC(=O)C(c2ccccc2[N+](=O)[O-])=C1Nc1ccc(O)c(Cl)c1 [NEU-986, SB 41528622] |  |  | <4.4 |  |  |  |  |  |  | 4.2 |  |  |  |  |  |  |  | 
CN1CC[C@H](c2c(O)cc(O)c3c(=O)cc(-c4ccccc4Cl)oc23)[C@H](O)C1 [NEU-987, flavopiridol] |  | 158 | < 4.4 | 398 | 3160 | 12.6 | 2000 | 2000 | 1580 | < 4 |  |  |  |  |  |  |  | 
